Measured values from US20080199606A1, “Composition for the Impregnation of Fibers, Fabrics and Nettings Imparting a Protective Activity Against Pests” (BASF Aktiengesellschaft, priority 2005, published 2008).

System: mosquitoes
Test: WHO cone test of treated, washed polyester nettings (knockdown, 24-hour mortality)
Format: in vivo
Conditions: polyester nettings treated with insecticide composition comprising a binder of example A and the N-arylhydrazine derivative; after Montpellier washing; 3 min cone exposure
Experimental: The long-lasting insecticidal treatment was performed with aqueous dispersions according to examples A1-A17 on commercially available white polyester netting material (fiber titer 75 denier, 156 mesh, weight 28-32 g/m^2) without prior washing. The aqueous treatment baths were prepared by mixing the aqueous dispersions with emulsions of N-ethyl-2,2-dimethylpropionamide-2-(2,6-dichloro-α,α,α-trifluoro-p-tolyl)-hydrazone and N-ethyl-2,2-dichloro-1-methylcyclo-propanecarboxamide-2-(2,6-dichloro-α,α,α-tri-fluoro-p-tolyl)hydrazone, respectively, setting pH with buffer solutions and adding a fixative (if needed). The concentrations of the treatment baths were adjusted according to the liquor uptake possible (LU between 60 and 100%). The treatment baths were applied by using a padder-stenter equipment on a laboratory scale (Mathis AG, Switzerland). The netting material is fully immersed into the treatment bath and excess liquor is removed by passing it through cylinders which move in counter-direction. By choosing a defined distance between these cylinders (and thus a defined pressure) the liquor uptake can be controlled. The liquor uptake is measured by weighing an impregnated piece of netting and subtracting the weight of the dry, untreated netting and is given as % weight of liquor on weight of netting. […]

SMILES | activity (knockdown, mortality) after washing of the nettings
CCN/C(=N\Nc1c(Cl)cc(C(F)(F)F)cc1Cl)C(C)(C)C [Ia-I, N-ethyl-2,2-dimethylpropionamide-2-(2,6-dichloro-α,α,α-trifluoro-p-tolyl)-hydrazone] | show an activity
CCN/C(=N\Nc1c(Cl)cc(C(F)(F)F)cc1Cl)C1(C)CC1(Cl)Cl (stereo not drawn) [Ia-II, N-Ethyl-2,2-dichloro-1-methylcyclo-propanecarboxamide-2-(2,6-dichloro-α,α,α-tri-fluoro-p-tolyl)hydrazone] | show an activity
